Measured values: patent US9359418B2, “Inhibitors of the T cell-specific alternative p38 activation pathway and methods of use” (The United States of America, as represented by the …, priority 2012, dated 2016)
Entries after “also recorded” stand apart in the source; their conditions may differ.

Experiments:
KPC mice = assay: KPC mice, PanIN progression and cancer formation after intravenous treatment; type: in vivo
Method: FIGS. 13A-13D are graphs showing that (11R)-71-85 inhibits PanIN and cancer formation in KPC mice. (FIG. 13A) KPC mice were sub-lethally irradiated at 6 weeks of age and packed with 10×10^6 hematopoietic bone marrow cells and the survival was monitored (n=5 per group; *p<0.05, Log-rank test). (FIG. 13B) Quantification of normal ducts and PanIN of KPC mice treated as in (A) (n=6 per group). (FIG. 13C) CD4^+ T cells infiltrated in the pancreas were analyzed for TNFα and IFNγ expression by flow cytometry after treatment with (11R) 71-85 or (11R) Scr. Bar graphs show the average percentage of indicated cytokine secreting cells. (n=8 per group; *p<0.05, NS=not significant, unpaired two-tailed Student's t-test). (FIG. 13D) KPC mice were treated as in (A) and the expression of different tumor promoting factors was analyzed in isolated pancreatic epithelial cells by quantitative real-time PCR (n=6 per group).
KPC mice provide a genetic model of murine pancreatic tumors that closely mimics the human disease. KPC (KrasG12D/^+; LSLTrp53R172H/^+; Pdx-1-Cre) mice express K-ras in pancreatic epithelium, and when made heterozygous for p53, develop spontaneous tumors starting at approximately 8-10 weeks of age (Hingorani et al., Cancer Cell 7(5):469-483, 2005). This involves the formation of pancreatic intraepithelial neoplasia precursor lesions (PanIN) and progression to fully-developed carcinoma with surrounding stromal and inflammatory reactions (Hingorani et al., Cancer Cell 7(5):469-483, 2005).
Given these findings, further experiments were conducted to determine if inhibition of the alternative pathway in KPC mice would alter disease progression. KPC mice were treated with intravenous (11R)-71-85 or (11R)-Scrambled starting at 9 weeks of age, and the pancreas was histologically evaluated 3.5 weeks later. Thirty-three percent (2 of 6) of mice treated with (11R)-Scrambled developed invasive carcinoma in the pancreas. […] In line with the reduced TNFα secretion, Irf4 mRNA expression was decreased in CD4^+ TILs after (11R)-71-85 treatment. […] The fact that early stage PanIN formation was present, but later pre-invasive stages were reduced, in (11R)-71-85-treated mice supports a role for T cell-derived TNFα in the progression of PanIN towards invasive carcinoma.

Naïve CD4+ T cells = assay: Th1 differentiation of naïve CD4+ T cells; type: cell-based; conditions: 2 μM; Th0 or Th1 polarizing conditions 3 days; relative to medium or (11R)-Ctrl
Method: FIGS. 5A-5D are a series of flow cytometry plots showing (11R)-71-85 inhibits Th1 differentiation. Naïve CD4^+ T cells were treated with either 2 μM of (11R)-71-85 or (11R)-Ctrl for two hours and after washing, cells were stimulated with anti-CD3 plus anti-CD28 in Th0 (neutral, FIG. 5A and FIG. 5C) or Th1 polarizing conditions (FIG. 5B and FIG. 5D) for 3 days. Cells were treated again with the same concentration of either medium (first column), (11R)-Ctrl (second column), or (11R)-71-85 (third column) for 2 hours and restimulated with PMA plus ionomycin in the presence of Golgi inhibitor for 4 hours. Expression of T bet and interferon (IFN)-γ (indicators of Th1 cells typical of a pro-inflammatory response) was analyzed by flow cytometry.
Additional studies were carried out to evaluate the effect of (11R)-71-85 on T helper (Th) cell differentiation. Expression of IFN-γ and T-bet was used as an indicator of Th1 cells typical of a pro-inflammatory response. Naïve CD4^+ T cells were treated with either medium or 2 μM of (11R)-71-85 or (11R)-Ctrl for two hours and after washing, cells were stimulated with anti-CD3 plus anti-CD28 in Th0 (neutral) or Th1 polarizing conditions for 3 days. […] Expression of T bet and IFNγ was analyzed by flow cytometry (FIGS. 5A-5D).

CD4+ T cells = assay: Cellular uptake of FITC conjugated peptides by purified CD4+ T cells; type: cell-based; conditions: FITC conjugated peptide, 2 hours at 37° C., flow cytometry
Method: FIG. 1 is a graph showing cellular uptake of (11R)-71-85 and (11R)-Ctrl. Purified CD4^+ T cells were treated with either FITC conjugated (11R)-71-85 or (11R)-Ctrl, or left untreated for 2 hours at 37° C. After incubation, cells were washed and analyzed by flow cytometry for FITC positivity.
To generate a cell-permeable form of the Gadd45α 71-85 peptide, 11 arginine residues were added to the N-terminus to produce a fusion protein referred to herein as (11R)-71-85. Cell-permeability of (11R)-71-85 was tested using purified CD4^+ T cells. (11R)-71-85 and a control peptide fused to 11 arginine residues (referred to as (11R)-Ctrl) were FITC conjugated. Purified CD4^+ T cells were treated with either FITC conjugated (11R)-71-85 or (11R)-Ctrl, or left untreated for 2 hours at 37° C. After incubation, cells were washed and analyzed by flow cytometry for FITC positivity.

[1] = tested on: p38 (alternative activation pathway); assay: In vitro kinase assay: ATF2 phosphorylation by Zap70-activated p38; type: biochemical; conditions: (11R)-71-85 0.2-4.0 μg, (11R)-Ctrl 4.0 μg; 30 minutes at 30° C.; p38 activated with Zap70
Method: Purified p38 proteins were activated by incubating with active Zap70 in kinase buffer for 1 hour. (11R)-71-85 or (11R)-Ctrl was then added and incubated for 30 minutes at 30° C. One μg ATF2 and 10 μCi [^32P]ATP were then added and incubated for 45 minutes at 30° C. Phosphorylated products were resolved by SDS-PAGE, transferred to nitrocellulose membranes, and visualized by phosphorimager.
To test whether (11R)-71-85 can inhibit the alternative p38 activation pathway in vitro, an assay was performed to detect phosphorylation of activating transcription factor 2 (ATF2), a target of activated p38, in the presence and absence of (11R)-71-85. Purified p38 proteins were activated by incubation with active Zap70 in kinase buffer for 1 hour. (11R)-71-85 (0.2, 0.5, 1.0, 2.0 or 4.0 μg) or (11R)-Ctrl (4.0 μg) was then added and incubated for 30 minutes at 30° C. One μg ATF2 and 10 μCi [^32P]ATP were added and incubated for 45 minutes at 30° C. Phosphorylated products were resolved by SDS-PAGE, transferred to nitrocellulose membranes, and visualized by phosphorimager. […] In addition, the decrease in ATF2 phosphorylation was dependent on the dose of (11R)-71-85.

[2] = intravenous, compared to control

(11R)-71-85: fusion protein: 11 arginine residues added to the N-terminus of the Gadd45α 71-85 peptide (LQIHFTLIQAFCCEN; N-terminal 11 arginine; UniProt P24522 71-85, looked up, fragment)
Irf4 mRNA expression in CD4+ TILs (KPC mice; intravenous): decreased
progression towards high grade PanIN formation (PanIN3, carcinoma in situ) (KPC mice; intravenous from 9 weeks of age, 3.5 weeks): slowed
mice that developed invasive carcinoma in the pancreas (KPC mice; intravenous from 9 weeks of age, histology 3.5 weeks later): no mice
intrapancreatic fibro-inflammatory reaction (H&E) (KPC mice; intravenous, compared to (11R)-Scrambled): reduced
CD4+ tumor infiltrating lymphocytes expressing TNFα (KPC mice; [2]): reduced numbers
expression of IFNγ in CD4+ tumor infiltrating lymphocytes (KPC mice; [2]): slightly reduced
expression of Cc12 in pancreatic epithelial cells (KPC mice; quantitative real-time PCR): reduced
expression of Cc15 in pancreatic epithelial cells (KPC mice; quantitative real-time PCR): reduced
expression of Tgfβ in pancreatic epithelial cells (KPC mice; quantitative real-time PCR): reduced
expression of Vegf in pancreatic epithelial cells (KPC mice; quantitative real-time PCR): reduced
expression of IFN-γ (Naïve CD4+ T cells): reduced expression; also recorded: blunted
expression of T-bet (Naïve CD4+ T cells): reduced expression; also recorded: blunted
cellular uptake (FITC positivity) (CD4+ T cells): taken up by the T cells
phosphorylation of ATF2 [1]: decrease in phosphorylation of ATF2
